Source: the kinase profiling compilation of Christmann-Franck et al. (2016)

Assays:
Test in all cases: Caliper, Mobility shift assay off-chip
[1] = target: BMX (human) (UniProt P51813)
[2] = target: CAMK1D (human) (UniProt Q8IU85)
[3] = target: CDC42BPB (human) (UniProt Q9Y5S2)
[4] = system: CHEK2 (human), O96017 [R145W]
[5] = target: CSNK1G1 (human) (UniProt Q9HCP0)
[6] = target: DDR2 (human) (UniProt Q16832)
[7] = target: DMPK (human) (UniProt Q09013)
[8] = target: EPHA1 (human) (UniProt P21709)
[9] = target: EPHA5 (human) (UniProt P54756)
Sequence of EPHA5 (human) (P54756 whole entry, looked up): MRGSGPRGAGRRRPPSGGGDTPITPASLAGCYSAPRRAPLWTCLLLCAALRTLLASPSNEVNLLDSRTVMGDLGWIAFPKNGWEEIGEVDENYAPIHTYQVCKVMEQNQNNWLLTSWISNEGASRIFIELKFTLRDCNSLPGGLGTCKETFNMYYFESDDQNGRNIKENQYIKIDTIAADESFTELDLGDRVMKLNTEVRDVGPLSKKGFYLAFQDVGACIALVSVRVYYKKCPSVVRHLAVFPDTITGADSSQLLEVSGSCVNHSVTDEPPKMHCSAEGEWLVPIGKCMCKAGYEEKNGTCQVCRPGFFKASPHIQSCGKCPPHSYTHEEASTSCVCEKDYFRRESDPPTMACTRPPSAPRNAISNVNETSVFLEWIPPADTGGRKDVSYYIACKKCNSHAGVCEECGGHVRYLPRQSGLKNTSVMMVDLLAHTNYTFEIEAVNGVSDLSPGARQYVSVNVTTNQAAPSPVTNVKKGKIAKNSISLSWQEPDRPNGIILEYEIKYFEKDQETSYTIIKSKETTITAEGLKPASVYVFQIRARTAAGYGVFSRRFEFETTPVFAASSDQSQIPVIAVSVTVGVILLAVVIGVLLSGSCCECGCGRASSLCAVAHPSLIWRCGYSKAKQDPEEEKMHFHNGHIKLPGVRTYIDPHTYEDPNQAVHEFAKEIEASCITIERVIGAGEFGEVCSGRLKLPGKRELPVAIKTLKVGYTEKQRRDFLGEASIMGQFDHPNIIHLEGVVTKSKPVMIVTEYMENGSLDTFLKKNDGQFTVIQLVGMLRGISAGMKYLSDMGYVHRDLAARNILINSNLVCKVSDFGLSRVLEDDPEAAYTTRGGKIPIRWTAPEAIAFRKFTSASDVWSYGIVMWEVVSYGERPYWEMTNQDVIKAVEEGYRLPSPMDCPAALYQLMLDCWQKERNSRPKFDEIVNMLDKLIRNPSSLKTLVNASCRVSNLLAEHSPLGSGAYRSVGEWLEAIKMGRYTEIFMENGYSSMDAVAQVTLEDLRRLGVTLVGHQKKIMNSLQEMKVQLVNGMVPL

[10] = target: EPHA7 (human) (UniProt Q15375)
[11] = target: EPHB2 (human) (UniProt P29323)
[12] = system: FGFR2 (human), P21802 [N549H]
[13] = target: FGR (human) (UniProt P09769)
[14] = system: FLT3 (human), P36888 [D835Y]
[15] = target: FLT4 (human) (UniProt P35916)
[16] = target: GSK3A (human) (UniProt P49840)
[17] = target: HCK (human) (UniProt P08631)
[18] = target: INSR (human) (UniProt P06213)
[19] = target: IRAK1 (human) (UniProt P51617)
[20] = target: ITK (human) (UniProt Q08881)
Sequence of ITK (human) (Q08881 whole entry, looked up): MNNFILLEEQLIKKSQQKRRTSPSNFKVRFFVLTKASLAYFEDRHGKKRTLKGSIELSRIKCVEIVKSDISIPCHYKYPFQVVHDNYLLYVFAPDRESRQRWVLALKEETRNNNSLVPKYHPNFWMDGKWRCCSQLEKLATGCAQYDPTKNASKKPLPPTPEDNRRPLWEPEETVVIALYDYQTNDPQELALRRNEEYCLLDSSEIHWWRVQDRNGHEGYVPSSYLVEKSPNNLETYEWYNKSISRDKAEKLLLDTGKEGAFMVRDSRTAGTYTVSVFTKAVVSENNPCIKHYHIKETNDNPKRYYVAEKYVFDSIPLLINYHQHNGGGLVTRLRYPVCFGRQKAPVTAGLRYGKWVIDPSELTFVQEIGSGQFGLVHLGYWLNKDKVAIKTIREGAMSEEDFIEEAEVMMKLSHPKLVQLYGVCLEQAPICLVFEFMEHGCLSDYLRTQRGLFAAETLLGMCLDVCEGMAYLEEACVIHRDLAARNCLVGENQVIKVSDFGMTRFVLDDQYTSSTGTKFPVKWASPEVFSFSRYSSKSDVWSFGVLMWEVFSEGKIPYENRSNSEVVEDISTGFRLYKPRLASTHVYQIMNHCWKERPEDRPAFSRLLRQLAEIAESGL

[21] = system: KIT (human), P10721 [D816H]
Sequence of KIT (human), P10721 [D816H] (P10721 whole entry D816H, looked up): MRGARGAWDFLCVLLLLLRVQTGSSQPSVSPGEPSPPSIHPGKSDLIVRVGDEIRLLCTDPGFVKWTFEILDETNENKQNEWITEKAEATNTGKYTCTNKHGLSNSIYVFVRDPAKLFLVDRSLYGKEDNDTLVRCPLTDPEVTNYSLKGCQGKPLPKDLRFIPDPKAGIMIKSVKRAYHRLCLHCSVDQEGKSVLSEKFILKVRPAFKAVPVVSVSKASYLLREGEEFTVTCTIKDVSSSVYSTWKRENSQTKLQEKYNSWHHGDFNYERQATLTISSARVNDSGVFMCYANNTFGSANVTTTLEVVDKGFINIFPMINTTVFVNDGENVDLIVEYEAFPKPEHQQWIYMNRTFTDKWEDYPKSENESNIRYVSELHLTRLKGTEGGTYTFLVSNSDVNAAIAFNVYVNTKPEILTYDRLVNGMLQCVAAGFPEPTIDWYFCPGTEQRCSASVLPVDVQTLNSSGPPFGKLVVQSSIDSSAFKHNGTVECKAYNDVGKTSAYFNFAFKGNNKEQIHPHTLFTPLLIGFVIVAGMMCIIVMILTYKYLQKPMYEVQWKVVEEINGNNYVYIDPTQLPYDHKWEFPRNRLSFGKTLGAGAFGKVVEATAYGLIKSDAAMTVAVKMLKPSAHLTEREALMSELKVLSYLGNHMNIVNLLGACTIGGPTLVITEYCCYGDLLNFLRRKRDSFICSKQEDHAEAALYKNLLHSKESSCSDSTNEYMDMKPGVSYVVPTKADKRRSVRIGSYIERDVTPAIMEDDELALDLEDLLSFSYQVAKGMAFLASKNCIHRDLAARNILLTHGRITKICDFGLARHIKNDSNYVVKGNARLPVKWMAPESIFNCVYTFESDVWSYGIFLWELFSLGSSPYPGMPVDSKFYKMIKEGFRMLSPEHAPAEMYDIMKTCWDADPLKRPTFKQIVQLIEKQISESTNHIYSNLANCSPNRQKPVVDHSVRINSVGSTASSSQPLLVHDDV

[22] = target: LYN (human) (UniProt P07948)
[23] = target: MARK1 (human) (UniProt Q9P0L2)
[24] = target: MERTK (human) (UniProt Q12866)
[25] = target: NEK7 (human) (UniProt Q8TDX7)
[26] = target: NTRK1 (human) (UniProt P04629)
[27] = target: PAK2 (human) (UniProt Q13177)
[28] = target: PAK7 (human) (UniProt Q9P286)
[29] = target: PRKCB2 (human) (UniProt P05771)
Sequence of PRKCB2 (human) (P05771 whole entry, looked up): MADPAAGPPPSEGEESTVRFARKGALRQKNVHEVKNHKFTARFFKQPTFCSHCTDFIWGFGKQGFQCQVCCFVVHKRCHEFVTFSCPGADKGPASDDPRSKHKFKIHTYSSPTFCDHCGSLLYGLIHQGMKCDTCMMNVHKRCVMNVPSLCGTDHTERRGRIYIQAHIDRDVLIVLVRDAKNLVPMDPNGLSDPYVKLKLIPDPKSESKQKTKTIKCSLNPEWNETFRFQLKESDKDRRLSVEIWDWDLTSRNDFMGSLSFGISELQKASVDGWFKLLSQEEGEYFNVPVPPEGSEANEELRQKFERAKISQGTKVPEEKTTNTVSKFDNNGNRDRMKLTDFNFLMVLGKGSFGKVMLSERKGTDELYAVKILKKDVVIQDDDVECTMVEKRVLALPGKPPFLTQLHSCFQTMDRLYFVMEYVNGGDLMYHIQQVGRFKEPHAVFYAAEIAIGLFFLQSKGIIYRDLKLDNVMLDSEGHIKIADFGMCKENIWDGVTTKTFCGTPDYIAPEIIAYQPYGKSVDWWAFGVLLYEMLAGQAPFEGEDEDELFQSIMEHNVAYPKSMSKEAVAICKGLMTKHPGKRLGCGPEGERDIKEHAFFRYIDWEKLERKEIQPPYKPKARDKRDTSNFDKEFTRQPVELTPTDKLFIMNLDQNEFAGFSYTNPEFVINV

[30] = target: PRKD2 (human) (UniProt Q9BZL6)
Sequence of PRKD2 (human) (Q9BZL6 whole entry, looked up): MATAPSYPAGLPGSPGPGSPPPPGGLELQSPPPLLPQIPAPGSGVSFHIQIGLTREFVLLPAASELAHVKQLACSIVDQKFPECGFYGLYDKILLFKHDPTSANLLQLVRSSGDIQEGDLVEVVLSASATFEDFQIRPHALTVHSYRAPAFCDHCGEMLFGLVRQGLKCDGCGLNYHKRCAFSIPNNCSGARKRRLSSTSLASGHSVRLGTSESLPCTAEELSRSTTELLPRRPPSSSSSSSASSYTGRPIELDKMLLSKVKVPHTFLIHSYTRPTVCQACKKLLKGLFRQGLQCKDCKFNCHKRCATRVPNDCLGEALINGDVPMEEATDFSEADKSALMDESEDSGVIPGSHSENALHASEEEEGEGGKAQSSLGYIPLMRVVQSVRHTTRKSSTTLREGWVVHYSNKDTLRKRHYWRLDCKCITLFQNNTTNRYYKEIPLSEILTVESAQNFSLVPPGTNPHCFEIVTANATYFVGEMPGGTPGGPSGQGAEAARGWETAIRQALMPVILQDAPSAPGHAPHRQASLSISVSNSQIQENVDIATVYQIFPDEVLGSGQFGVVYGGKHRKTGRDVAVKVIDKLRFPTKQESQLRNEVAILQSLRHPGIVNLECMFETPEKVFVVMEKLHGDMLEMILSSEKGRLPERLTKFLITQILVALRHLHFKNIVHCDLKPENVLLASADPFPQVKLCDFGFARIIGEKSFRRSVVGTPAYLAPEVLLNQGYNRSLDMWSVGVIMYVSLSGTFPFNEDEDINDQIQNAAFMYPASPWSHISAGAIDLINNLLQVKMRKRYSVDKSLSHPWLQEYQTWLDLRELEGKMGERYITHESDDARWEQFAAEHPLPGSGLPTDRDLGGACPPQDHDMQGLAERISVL

[31] = target: PRKG1 (human) (UniProt Q13976)
[32] = target: PRKX (human) (UniProt P51817)
[33] = target: RPS6KA6 KD1 KD2 (human) (UniProt Q9UK32)
[34] = target: SGK3 (human) (UniProt Q96BR1)
[35] = target: SRPK1 (human) (UniProt Q96SB4)
[36] = target: SYK (human) (UniProt P43405)
[37] = target: TAOK2 (human) (UniProt Q9UL54)
[38] = target: TLK2 (human) (UniProt Q86UE8)
[39] = target: TSSK2 (human) (UniProt Q96PF2)
[40] = target: TYRO3 (human) (UniProt Q06418)
[41] = target: YES1 (human) (UniProt P07947)

Sequence of DDR2 (human) (Q16832 whole entry, looked up): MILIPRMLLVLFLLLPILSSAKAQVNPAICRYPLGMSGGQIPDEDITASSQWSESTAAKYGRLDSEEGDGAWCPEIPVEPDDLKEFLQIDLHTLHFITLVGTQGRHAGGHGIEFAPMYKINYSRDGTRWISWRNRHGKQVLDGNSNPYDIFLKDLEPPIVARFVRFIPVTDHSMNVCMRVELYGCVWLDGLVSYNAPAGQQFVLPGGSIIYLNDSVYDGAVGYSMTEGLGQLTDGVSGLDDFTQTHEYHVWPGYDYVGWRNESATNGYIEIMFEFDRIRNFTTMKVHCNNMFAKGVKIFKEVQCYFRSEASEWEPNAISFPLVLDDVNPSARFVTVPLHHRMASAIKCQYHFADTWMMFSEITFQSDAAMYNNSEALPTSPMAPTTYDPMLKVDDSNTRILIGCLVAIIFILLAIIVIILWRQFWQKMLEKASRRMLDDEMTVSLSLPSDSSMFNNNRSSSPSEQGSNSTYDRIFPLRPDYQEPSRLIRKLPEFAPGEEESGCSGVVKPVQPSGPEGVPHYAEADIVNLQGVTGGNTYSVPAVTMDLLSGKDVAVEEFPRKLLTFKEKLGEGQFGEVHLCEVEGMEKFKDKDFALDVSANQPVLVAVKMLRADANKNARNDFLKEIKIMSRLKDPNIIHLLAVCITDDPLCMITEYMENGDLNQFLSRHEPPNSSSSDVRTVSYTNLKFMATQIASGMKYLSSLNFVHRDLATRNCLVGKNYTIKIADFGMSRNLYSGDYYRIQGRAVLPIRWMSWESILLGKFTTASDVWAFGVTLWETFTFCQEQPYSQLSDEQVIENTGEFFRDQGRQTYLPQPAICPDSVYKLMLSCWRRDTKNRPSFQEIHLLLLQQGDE

COc1ccc(C#Cc2ccc3ncc4ncn(-c5ccc(CCN)cc5)c4c3c2)cc1
residual activity ([1]; compound 10.0 µM): 25% | residual activity ([2]; compound 10.0 µM): 47% | residual activity ([3]; compound 10.0 µM): 111% | residual activity ([4]; compound 10.0 µM): 1% | residual activity ([5]; compound 10.0 µM): 51% | residual activity ([6]; compound 10.0 µM): 57% | residual activity ([7]; compound 10.0 µM): 97% | residual activity ([8]; compound 10.0 µM): 80% | residual activity ([9]; compound 10.0 µM): 90% | residual activity ([10]; compound 10.0 µM): 118% | residual activity ([11]; compound 10.0 µM): 99% | residual activity ([12]; compound 10.0 µM): 11% | residual activity ([13]; compound 10.0 µM): 36% | residual activity ([14]; compound 10.0 µM): 10% | residual activity ([15]; compound 10.0 µM): 1% | residual activity ([16]; compound 10.0 µM): 99% | residual activity ([17]; compound 10.0 µM): 63% | residual activity ([18]; compound 10.0 µM): 95% | residual activity ([19]; compound 10.0 µM): 58% | residual activity ([20]; compound 10.0 µM): 78% | residual activity ([21]; compound 10.0 µM): 22% | residual activity ([22]; compound 10.0 µM): 56% | residual activity ([23]; compound 10.0 µM): 86% | residual activity ([24]; compound 10.0 µM): 3% | residual activity ([25]; compound 10.0 µM): 121% | residual activity ([26]; compound 10.0 µM): 4% | residual activity ([27]; compound 10.0 µM): 98% | residual activity ([28]; compound 10.0 µM): 121% | residual activity ([29]; compound 10.0 µM): 118% | residual activity ([30]; compound 10.0 µM): 15% | residual activity ([31]; compound 10.0 µM): 29% | residual activity ([32]; compound 10.0 µM): 91% | residual activity ([33]; compound 10.0 µM): 15% | residual activity ([34]; compound 10.0 µM): 12% | residual activity ([35]; compound 10.0 µM): 80% | residual activity ([36]; compound 10.0 µM): 33% | residual activity ([37]; compound 10.0 µM): 81% | residual activity ([38]; compound 10.0 µM): 106% | residual activity ([39]; compound 10.0 µM): 72% | residual activity ([40]; compound 10.0 µM): 19% | residual activity ([41]; compound 10.0 µM): 109%

O=C(NCCCNc1nc(Nc2cccc(NC(=O)N3CCCC3)c2)ncc1I)c1cccs1
residual activity ([1]; compound 1.0 µM): 94% | residual activity ([2]; compound 1.0 µM): 86% | residual activity ([3]; compound 1.0 µM): 113% | residual activity ([4]; compound 1.0 µM): 73% | residual activity ([5]; compound 1.0 µM): 112% | residual activity ([6]; compound 1.0 µM): 113% | residual activity ([7]; compound 1.0 µM): 94% | residual activity ([8]; compound 1.0 µM): 82% | residual activity ([9]; compound 1.0 µM): 89% | residual activity ([10]; compound 1.0 µM): 131% | residual activity ([11]; compound 1.0 µM): 103% | residual activity ([12]; compound 1.0 µM): 50% | residual activity ([13]; compound 1.0 µM): 97% | residual activity ([14]; compound 1.0 µM): 2% | residual activity ([15]; compound 1.0 µM): 13% | residual activity ([16]; compound 1.0 µM): 68% | residual activity ([17]; compound 1.0 µM): 99% | residual activity ([18]; compound 1.0 µM): 91% | residual activity ([19]; compound 1.0 µM): 99% | residual activity ([20]; compound 1.0 µM): 85% | residual activity ([21]; compound 1.0 µM): 14% | residual activity ([22]; compound 1.0 µM): 96% | residual activity ([23]; compound 1.0 µM): 2% | residual activity ([24]; compound 1.0 µM): 66% | residual activity ([25]; compound 1.0 µM): 109% | residual activity ([26]; compound 1.0 µM): 31% | residual activity ([27]; compound 1.0 µM): 111% | residual activity ([28]; compound 1.0 µM): 115% | residual activity ([29]; compound 1.0 µM): 106% | residual activity ([30]; compound 1.0 µM): 75% | residual activity ([31]; compound 1.0 µM): 107% | residual activity ([32]; compound 1.0 µM): 70% | residual activity ([33]; compound 1.0 µM): 103% | residual activity ([34]; compound 1.0 µM): 81% | residual activity ([35]; compound 1.0 µM): 100% | residual activity ([36]; compound 1.0 µM): 66% | residual activity ([37]; compound 1.0 µM): 37% | residual activity ([38]; compound 1.0 µM): 91% | residual activity ([39]; compound 1.0 µM): 52% | residual activity ([40]; compound 1.0 µM): 84% | residual activity ([41]; compound 1.0 µM): 110%
